Test results taken from publication PMC12661054, “The CIP2A-TOPBP1 axis facilitates mitotic DNA repair via MiDAS and MMEJ” (Nature Communications, 2025).
Entries after “also recorded” stand apart in the source; their conditions may differ.

Assays:
[1] = test system: RPE1 p53-/- cells; experiment: Immunofluorescence foci, RPE1 p53-/- cells; format: cell-based, human; conditions: RPE1 p53-/- cells treated with aphidicolin followed by acute CDK1i
Experimental: Immunofluorescence microscopy […] For detection of micronuclei, cells were fixed in 250 mM HEPES pH 7.5, 0.1% Triton X-100, 4% PFA in PBS for 20 minutes at 4 °C. Coverslips were then incubated for 5 min in 1x PBS with three buffer changes followed by incubation with 0.5% Triton X-100/ PBS for 10 min at room temperature. Coverslips were then incubated for 5 minutes in 1x PBS with three buffer changes. For EdU detection coverslips were transferred to a humidified chamber and incubated in EdU click it reaction buffer containing Alexafluor 488 azide for 1 h at room temperature followed by three 5 min washes in 1x PBS. Coverslips were then incubated in 5% FBS/PBS for 1 h followed by overnight incubation at 4 °C with primary antibody diluted in 5% FBS/PBS. Coverslips were then washed 3 × 5 min in 1x PBS followed by 1 h incubation at room temperature in 5% FBS/PBS containing secondary antibodies. Coverslips were incubated a further three times for 5 min in 1x PBS. Coverslips were then mounted on superfrost microscopy slides using Vectashield mounting medium with DAPI (Vector laboratories, […]). […] Cells were fixed in […] for 15 min at room temperature, followed by 3 × 5 min washes in 1xPBS. Coverslips were then incubated in 0.5% Triton-X/PBS for 10 min at room temperature, followed by a further 3 × 5 min 1xPBS washes. Coverslips were then incubated in blocking buffer (2% BSA, 0.05% Tween-20) for 1 h at room temperature, followed by incubation in respective primary antibodies overnight at 4 °C. Coverslips were then washed 3x for 5 min in 1x PBS followed by incubation for 1 h at room temperature in blocking buffer containing secondary antibodies. Coverslips were then washed 3x for 5 min in 1x PBS and mounted with Vectashield PLUS antifade mounting medium with DAPI (Vector laboratories, […]). Images were acquired using a Zeiss Axio Observer Z1 MarianasTM Microscope attached with a CSU-SoRa spinning disk unit using either a Photometrics Kinetix sCMOS camera built by Intelligent Imaging Innovations (3i) or a Zeiss Axio Observer Z1 MarianasTM Microscope attached with a CSUX1 spinning disk unit and Hamamatsu Flash 4 CMOS camera built by Intelligent Imaging Innovations (3i) or using an Opera Phenix Plus high content imaging system (Revvity). In each case 405, 488 and 640 laser lines were used in addition to DAPI, GFP/FITC, iRFP/CY5 emission filters. Quantification was carried out using FIJI (ImageJ, RRID:SCR_003070) software, CellProfiler (Broad Institute), Harmony (Revvity) or using […] Microsystems). Images of mitotic cells were analysed in 3D with maximum Z projections used for representative images in the manuscript to assist with visualisation.For interphase cells 2D images were analysed.

[2] = test system: SLX4 Thr1260; experiment: SLX4 Thr1260 phosphorylation in mitotic HEK293TN cells (western blot); format: cell-based, human; conditions: acute CDK1i (RO-3306 7 µM, 30 min) after 18 h 100 ng/ml nocodazole; eGFP-SLX4 or eGFP-TOPBP1 Co-IP
Experimental: GFP-Trap® Agarose Co-immunoprecipitation
HEK293TN cells were seeded to be ~25–30% confluence the next day in a 15 cm tissue culture dish. The following day cells were transfected using Lipofectamine 2000 transfection reagent (Thermo Fisher Scientific) with 24 µg of plasmid DNA encoding eGFP-SLX4 or eGFP-TOPBP1 expression cassettes following manufacturer’s instructions.
Forty eight hours post transfection cells were harvested after treatments as described, snap frozen on dry ice and stored at −80 °C. Cell pellets were removed from −80 storage and thawed on ice in 2.4 ml IP buffer 1 (100 mM NaCl, 0.2% Igepal CA-630, 1 mM MgCl2, 10% glycerol, 5 mM NaF, 50 mM Tris-HCl, pH 7.5), supplemented with EDTA Free […] protease inhibitor (Sigma Aldrich) and 25 U ml−1 Benzonase (Novagen). Cells were resuspended and rotated at 4 °C for 90 min. Benzonase was then inhibited by adjusted NaCl concentration to 200 mM and with the addition of 2 mM EDTA, followed by rotation for a further 30 min at 4 °C on a carousel. The cell suspension was then centrifuged at 16,000 x g for 25 min at 4 °C. […] The supernatant, now containing eluted material, was transferred to a new 1.5 ml microcentrifuge tube ready for downstream western blot analysis.

O=C1NC(=NCc2cccs2)S/C1=C\c1ccc2ncccc2c1 [CDK1i]
MUS81 and TOPBP1 foci formation in prometaphase [1]: impairment of MUS81 and TOPBP1 foci formation in prometaphase cells
SLX4 Thr1260 phosphorylation [2]: reduced; also recorded: marked reduction in SLX4 Thr1260 phosphorylation
